Data on 2 molecules can be found in BindingDB's records for patent US20240199535 (Immunic, 2024).

As usually defined, the Ki is the equilibrium dissociation constant of an inhibitor or competing ligand from its target.

In the assay the target is Dihydroorotate dehydrogenase (quinone), mitochondrial (Homo sapiens, UniProt Q02127).
Dihydroorotate dehydrogenase (quinone), mitochondrial, sequence (Q02127 whole entry): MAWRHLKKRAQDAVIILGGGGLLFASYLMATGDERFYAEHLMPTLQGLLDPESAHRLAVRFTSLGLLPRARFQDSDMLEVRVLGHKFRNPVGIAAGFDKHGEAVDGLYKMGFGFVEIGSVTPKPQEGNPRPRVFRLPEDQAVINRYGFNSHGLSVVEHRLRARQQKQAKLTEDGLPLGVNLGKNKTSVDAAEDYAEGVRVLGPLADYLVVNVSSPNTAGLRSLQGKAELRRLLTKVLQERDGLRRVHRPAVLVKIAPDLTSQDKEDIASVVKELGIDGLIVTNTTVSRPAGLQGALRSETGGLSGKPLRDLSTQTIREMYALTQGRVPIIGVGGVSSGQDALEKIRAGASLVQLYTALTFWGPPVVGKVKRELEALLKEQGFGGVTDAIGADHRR

Experimental: Briefly, the hDHODH concentration was adjusted in a way that an average slope of approximately 0.2 AU/min served as the positive control (e.g. without inhibitor). The standard assay mixture contained 60 μM 2,6-dichloroindophenol, 50 μM decylubiquinone and 100 μM dihydroorotate. The hDHODH enzyme with or without at least six different concentrations of the compounds was added and measurements were performed in 50 mM TrisHCl, 150 mM KCl and 0.1% Triton X-100 at pH 8.0 and at 30° C. The reaction was started by adding dihydroorotate and measuring the absorption at 600 nm for 2 min. For the determination of the IC50 values, each data point was recorded in triplicate. For the determination of the inhibitory constant Ki, the KM values for DHO and decylubichinon were determined. Afterwards, the compounds were diluted in a dilution series depending on their IC50 values in DMSO.

`O=C(Nc1c(F)c(F)c(-c2cccc(OC(F)(F)F)c2)c(F)c1F)c1ccsc1C(=O)O` [US20240199535, Example 4] displayed an inhibition constant Ki of 3.7 nM.
The molecule `O=C(O)C1=C(C(=O)Nc2ccc(-c3cccc(OC(F)F)c3)cc2F)CCC1` [US20240199535, Example 5] came in with a Ki of 1820 nM.
